# Assay results taken from article PMC9950431, “A bivalent remipede toxin promotes calcium release via ryanodine receptor activation” (Nature Communications, 2023).
# What was measured:
# RyR2 = experiment: Single channel electrophysiology of RyR2 channels inserted into lipid bilayers (exposure to peptide); type: biochemical, sheep (cardiac SR)
# Experimental: (§1) Cardiac SR was prepared from mature female crossbred sheep hearts, and skeletal SR vesicles were isolated from the back and leg muscles of mature female New Zealand white rabbits[29],[54] with approval from the ANU Animal Experiment Ethics Committee Protocol Number A2015/35. […] Solutions for vesicle incorporation contained (mM): cis 230 caesium methanesulfonate (CsMS); 20 CsCl; 1 CaCl2 and 10 […] (TES) pH 7.4 and trans 30 CsMS; 20 CsCl; 1 CaCl2 10 TES; pH 7.4. […] Following incorporation, 200 mM CsMS was added to the trans solution and the cis solution exchanged with recording solution containing (mM): 230 CsMS; 20 CsCl; 0.001 CaCl2;10 TES and pH 7.4, with [Ca^2+] set by a [BAPTA] determined using a Ca^2+ electrode. The cytoplasmic and luminal solutions contained 1 μM and 1 mM Ca^2+ respectively, with symmetrical 250/250 mM CsMS. Bilayer voltage was switched between +40 mV and −40 mV (cytoplasmic voltage relative to grounded luminal solution) every 30 s. The activity of the RyR channels used here included 1 µM Ca^2+ in the cytoplasmic solution and 1 mM Ca^2+ in the luminal solution[29],[55]. Electrophysiology experiments were analysed using Channel 2 (P.W. Gage, M. Smith, Australian National University) and Channel 3 (N.W. Laver, University of Newcastle, Australia) software, available from the authors upon request. Statistical analyses were performed using Microsoft Excel (Office 365). […] Following most incorporation events, a single channel only was active in the bilayer and channel open probability (Po), mean open time (To), mean closed time (Tc) and open event frequency (Fo) were measured. When 2–4 channels were active in a bilayer, PO was approximated from the fractional mean current (I’F), i.e., mean current divided by maximum current. I’F is equal to PO in a single channel and indicates the average PO of multiple channels in a bilayer. […] Experiments at UN also included a minority of multi-channel experiments. The bilayer rigs, solution composition, source of channels, data acquisition and analyses methods were all identical.
# (§2) Statistical analysis of single channel data was performed using Excel spreadsheets and embedded Students t-test functions or a sign test as indicated in the graphs in Figs. 1 and 3.
# RyR1 = molecular target: T1, RyR1 (Oryctolagus cuniculus, UniProt P11716); experiment: Single channel electrophysiology of RyR1 channels inserted into lipid bilayers (exposure to peptide); type: biochemical, New Zealand white rabbit (skeletal SR); settings: for relPo: without WO, relative to control
# T1 construct: skeletal SR vesicles were isolated from the back and leg muscles of mature female New Zealand white rabbits; from tissue; host or cells: rabbit back and leg skeletal muscle, sarcoplasmic reticulum vesicles
# Experimental: as §1, §2
# ryanodine receptor = molecular target: T2, ryanodine receptor (Oryctolagus cuniculus, UniProt P11716); experiment: Single channel recording, washout (Woearly, Wolate) after Xt3a, sheet "Figure 3B" (RyR isoform not given); type: biochemical
# T2 construct: skeletal SR vesicles were isolated from the back and leg muscles of mature female New Zealand white rabbits; from tissue; host or cells: rabbit back and leg skeletal muscle, sarcoplasmic reticulum vesicles
# Excerpt: Supplement 41467_2023_36579_MOESM6_ESM.xlsx, sheet "Figure 3B" | column: Woearly; Wolate
# T1 sequence (P11716 whole entry): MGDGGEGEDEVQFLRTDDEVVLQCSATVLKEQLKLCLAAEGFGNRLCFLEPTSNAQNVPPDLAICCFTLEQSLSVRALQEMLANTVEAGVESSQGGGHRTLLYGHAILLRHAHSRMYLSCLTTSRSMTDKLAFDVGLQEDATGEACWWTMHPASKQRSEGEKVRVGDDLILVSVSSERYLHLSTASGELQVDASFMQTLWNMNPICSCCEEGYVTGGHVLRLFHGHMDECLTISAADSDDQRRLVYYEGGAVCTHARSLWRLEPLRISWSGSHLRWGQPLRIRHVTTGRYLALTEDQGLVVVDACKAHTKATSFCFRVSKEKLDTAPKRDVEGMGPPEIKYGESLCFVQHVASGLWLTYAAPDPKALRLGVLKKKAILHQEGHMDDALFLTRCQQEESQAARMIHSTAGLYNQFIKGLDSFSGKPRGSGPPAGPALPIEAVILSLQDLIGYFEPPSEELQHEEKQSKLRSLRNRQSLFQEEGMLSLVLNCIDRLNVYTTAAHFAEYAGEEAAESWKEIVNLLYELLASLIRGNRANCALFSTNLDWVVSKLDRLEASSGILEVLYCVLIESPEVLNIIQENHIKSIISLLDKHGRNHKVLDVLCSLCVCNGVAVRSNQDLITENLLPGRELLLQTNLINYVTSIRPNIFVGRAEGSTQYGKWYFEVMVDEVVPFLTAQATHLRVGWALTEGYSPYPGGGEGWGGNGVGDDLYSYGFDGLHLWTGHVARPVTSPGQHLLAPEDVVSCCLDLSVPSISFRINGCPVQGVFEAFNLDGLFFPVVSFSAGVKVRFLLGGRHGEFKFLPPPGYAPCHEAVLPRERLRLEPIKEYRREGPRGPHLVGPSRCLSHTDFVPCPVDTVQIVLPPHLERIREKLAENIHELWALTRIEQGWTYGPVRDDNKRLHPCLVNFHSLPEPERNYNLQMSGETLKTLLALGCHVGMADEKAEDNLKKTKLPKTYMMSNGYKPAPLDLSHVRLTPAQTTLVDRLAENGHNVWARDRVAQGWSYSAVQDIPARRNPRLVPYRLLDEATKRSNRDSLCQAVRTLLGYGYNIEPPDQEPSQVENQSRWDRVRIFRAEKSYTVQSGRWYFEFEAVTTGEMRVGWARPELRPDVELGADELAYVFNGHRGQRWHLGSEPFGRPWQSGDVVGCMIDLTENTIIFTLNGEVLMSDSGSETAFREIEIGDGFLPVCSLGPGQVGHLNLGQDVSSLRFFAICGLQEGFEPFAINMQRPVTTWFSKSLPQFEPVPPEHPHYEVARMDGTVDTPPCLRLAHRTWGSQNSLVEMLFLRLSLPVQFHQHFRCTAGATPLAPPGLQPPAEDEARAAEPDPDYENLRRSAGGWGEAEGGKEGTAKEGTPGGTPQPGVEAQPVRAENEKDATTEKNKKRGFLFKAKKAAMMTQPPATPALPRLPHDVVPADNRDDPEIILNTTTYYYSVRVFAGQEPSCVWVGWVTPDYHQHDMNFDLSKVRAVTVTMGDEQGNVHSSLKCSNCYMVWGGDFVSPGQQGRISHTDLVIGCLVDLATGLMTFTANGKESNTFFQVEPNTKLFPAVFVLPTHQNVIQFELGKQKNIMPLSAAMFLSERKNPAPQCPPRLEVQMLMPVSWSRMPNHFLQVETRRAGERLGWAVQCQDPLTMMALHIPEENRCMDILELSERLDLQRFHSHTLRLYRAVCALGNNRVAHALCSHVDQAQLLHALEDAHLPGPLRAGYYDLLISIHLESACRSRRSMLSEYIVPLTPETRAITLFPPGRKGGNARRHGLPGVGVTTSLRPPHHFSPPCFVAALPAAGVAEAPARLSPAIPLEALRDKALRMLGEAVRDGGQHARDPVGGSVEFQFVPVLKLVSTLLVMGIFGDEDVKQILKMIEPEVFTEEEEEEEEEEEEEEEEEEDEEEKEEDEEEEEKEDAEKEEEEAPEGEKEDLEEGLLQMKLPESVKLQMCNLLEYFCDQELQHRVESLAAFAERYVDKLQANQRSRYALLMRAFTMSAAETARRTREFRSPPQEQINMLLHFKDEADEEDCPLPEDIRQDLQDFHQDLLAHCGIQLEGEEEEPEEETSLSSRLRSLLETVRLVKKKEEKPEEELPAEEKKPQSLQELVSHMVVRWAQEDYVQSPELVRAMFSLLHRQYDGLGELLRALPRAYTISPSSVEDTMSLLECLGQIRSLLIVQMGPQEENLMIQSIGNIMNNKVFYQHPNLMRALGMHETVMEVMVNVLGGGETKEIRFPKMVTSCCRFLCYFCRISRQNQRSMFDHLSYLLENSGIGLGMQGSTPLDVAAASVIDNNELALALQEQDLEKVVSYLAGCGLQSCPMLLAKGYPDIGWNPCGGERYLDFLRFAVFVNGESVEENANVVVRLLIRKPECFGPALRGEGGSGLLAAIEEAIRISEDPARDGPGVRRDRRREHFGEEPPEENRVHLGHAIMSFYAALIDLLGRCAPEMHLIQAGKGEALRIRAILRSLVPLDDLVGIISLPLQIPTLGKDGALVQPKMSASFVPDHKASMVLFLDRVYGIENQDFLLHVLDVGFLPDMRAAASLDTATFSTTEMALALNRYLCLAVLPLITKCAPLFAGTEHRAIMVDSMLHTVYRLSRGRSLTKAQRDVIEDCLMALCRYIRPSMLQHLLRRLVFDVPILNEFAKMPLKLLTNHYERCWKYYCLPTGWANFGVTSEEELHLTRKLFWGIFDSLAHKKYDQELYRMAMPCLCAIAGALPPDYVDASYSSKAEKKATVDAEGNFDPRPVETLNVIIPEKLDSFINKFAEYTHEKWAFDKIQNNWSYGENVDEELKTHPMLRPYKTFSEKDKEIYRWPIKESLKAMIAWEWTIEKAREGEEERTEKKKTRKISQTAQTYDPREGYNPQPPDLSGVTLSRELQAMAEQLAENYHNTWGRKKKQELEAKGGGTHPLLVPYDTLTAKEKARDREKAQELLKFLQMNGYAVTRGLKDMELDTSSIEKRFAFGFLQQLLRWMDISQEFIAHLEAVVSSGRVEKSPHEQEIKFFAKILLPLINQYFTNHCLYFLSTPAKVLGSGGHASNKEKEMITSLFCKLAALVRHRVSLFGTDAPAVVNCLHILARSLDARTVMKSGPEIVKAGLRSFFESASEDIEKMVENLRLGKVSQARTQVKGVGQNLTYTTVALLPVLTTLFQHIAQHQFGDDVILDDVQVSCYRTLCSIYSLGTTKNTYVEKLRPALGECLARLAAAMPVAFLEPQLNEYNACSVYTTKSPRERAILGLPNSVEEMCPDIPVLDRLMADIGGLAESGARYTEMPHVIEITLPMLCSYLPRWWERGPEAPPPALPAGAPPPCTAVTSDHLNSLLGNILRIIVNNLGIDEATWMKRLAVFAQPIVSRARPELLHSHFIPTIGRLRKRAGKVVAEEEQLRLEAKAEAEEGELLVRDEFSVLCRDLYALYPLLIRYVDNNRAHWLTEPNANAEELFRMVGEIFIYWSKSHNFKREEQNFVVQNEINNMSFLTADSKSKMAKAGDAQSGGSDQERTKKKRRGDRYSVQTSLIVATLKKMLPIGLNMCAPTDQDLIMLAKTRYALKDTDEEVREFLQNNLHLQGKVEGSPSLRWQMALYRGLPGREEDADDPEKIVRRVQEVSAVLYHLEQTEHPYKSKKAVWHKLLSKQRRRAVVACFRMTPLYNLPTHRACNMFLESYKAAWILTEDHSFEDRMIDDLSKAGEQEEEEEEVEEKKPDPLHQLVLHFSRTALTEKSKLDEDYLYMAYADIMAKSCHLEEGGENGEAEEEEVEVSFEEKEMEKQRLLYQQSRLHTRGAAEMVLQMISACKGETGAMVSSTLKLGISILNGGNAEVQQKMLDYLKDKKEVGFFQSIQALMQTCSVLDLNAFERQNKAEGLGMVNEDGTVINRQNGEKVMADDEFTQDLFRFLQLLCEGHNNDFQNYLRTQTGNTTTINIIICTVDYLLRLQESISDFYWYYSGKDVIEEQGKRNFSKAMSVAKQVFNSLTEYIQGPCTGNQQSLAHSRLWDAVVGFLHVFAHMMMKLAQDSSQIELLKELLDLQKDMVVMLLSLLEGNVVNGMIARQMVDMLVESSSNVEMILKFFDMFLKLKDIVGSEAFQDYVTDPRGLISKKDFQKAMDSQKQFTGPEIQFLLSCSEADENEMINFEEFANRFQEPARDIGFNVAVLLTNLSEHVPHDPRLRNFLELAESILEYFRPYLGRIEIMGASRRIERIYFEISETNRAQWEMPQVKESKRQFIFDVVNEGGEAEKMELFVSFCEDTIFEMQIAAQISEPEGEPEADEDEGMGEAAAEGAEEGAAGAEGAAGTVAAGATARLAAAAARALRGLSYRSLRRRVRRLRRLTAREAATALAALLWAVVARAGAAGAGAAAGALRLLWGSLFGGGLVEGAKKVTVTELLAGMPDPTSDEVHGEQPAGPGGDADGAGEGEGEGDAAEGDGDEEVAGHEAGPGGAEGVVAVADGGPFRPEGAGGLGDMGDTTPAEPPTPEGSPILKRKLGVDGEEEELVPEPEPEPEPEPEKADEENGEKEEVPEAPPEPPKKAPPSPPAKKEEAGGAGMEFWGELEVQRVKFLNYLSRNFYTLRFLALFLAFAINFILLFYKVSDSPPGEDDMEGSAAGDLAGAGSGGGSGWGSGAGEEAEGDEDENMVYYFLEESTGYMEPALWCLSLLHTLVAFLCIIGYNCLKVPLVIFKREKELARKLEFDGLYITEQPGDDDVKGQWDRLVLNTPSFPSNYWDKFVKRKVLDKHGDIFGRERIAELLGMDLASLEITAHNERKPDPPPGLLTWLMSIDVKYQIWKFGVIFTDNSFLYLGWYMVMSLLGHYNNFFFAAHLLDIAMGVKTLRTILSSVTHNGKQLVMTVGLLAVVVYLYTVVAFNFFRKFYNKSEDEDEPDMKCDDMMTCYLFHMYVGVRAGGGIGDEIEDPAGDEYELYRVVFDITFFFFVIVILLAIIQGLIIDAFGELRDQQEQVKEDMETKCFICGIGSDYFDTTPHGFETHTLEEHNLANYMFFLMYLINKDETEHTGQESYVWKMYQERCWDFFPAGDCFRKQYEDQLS
# T2 sequence (P11716 whole entry, canonical isoform): as the sequence (P11716 whole entry) above
substance,measurement,setting,value
φ-Xibalbin3-Xt3a,channel activity during exposure,RyR2,no significant change in activity during exposure to the toxin
same,channel activity,RyR2; 1 nM and 10 nM,weak trend towards increased activity
same,openings to the maximum conductance,RyR2; 1 nM to 1 μM,did not show any consistent changes in openings to the maximum conductance
same,"substate level, % of maximum conductance","RyR2; 10 nM Xt3a, −40 mV, prolonged gating to substate levels",< 50%
same,activity against RyR1 (discussion),RyR1,even more potent than IpTxA
same,relPo,"RyR1; 10 pM Xt3a, mean (sem in row below)",4.209
same,relPo,"RyR1; 10 pM Xt3a, replicate CT1012 n",4.171
same,relPo,"RyR1; 10 pM Xt3a, replicate CT1013 n",17.6667
same,relPo,"RyR1; 10 pM Xt3a, replicate CT1024 n",1.745
same,relPo,"RyR1; 10 pM Xt3a, replicate CT1051 n",0.553
same,relPo,"RyR1; 10 pM Xt3a, replicate CT1052 n",1.086
same,relPo,"RyR1; 10 pM Xt3a, replicate CT1055 n",3.339
same,relPo,"RyR1; 10 pM Xt3a, replicate CT1143 n",0.669
same,relPo,"RyR1; 10 pM Xt3a, replicate CT1144 n",11.3
same,relPo,"RyR1; 10 pM Xt3a, replicate CT1145 n",13.6431
same,relPo,"RyR1; 10 pM Xt3a, replicate CT1146 n",1.397
same,channel open probability (PO) relative to baseline,RyR1; 10 pM to 1 µM,significant changes in all Xt3a concentrations tested
same,"substate level, % of maximum conductance","RyR1; 100 pM Xt3a, −40 mV, prolonged gating to substate levels",< 50%
same,relPo,"RyR1; 100 pM Xt3a, mean (sem in row below)",2.735
same,relPo,"RyR1; 100 pM Xt3a, replicate CT1012 n",1.829
same,relPo,"RyR1; 100 pM Xt3a, replicate CT1013 n",17
same,relPo,"RyR1; 100 pM Xt3a, replicate CT1024 n",1.169
same,relPo,"RyR1; 100 pM Xt3a, replicate CT1051 n",0.6185
same,relPo,"RyR1; 100 pM Xt3a, replicate CT1052 n",1.17
same,relPo,"RyR1; 100 pM Xt3a, replicate CT1055 n",1.101
same,relPo,"RyR1; 100 pM Xt3a, replicate CT1143 n",1.262
same,relPo,"RyR1; 100 pM Xt3a, replicate CT1144 n",6.375
same,relPo,"RyR1; 100 pM Xt3a, replicate CT1145 n",3.125
same,relPo,"RyR1; 100 pM Xt3a, replicate CT1146 n",1.411
same,decline in PO compared with 10 nM Xt3a,RyR1; 0.1–1 µM Xt3a,~ 50%
same,full conductance channel openings (high affinity activation),RyR1; Xt3a up to 10 nM,led to an increase in full conductance channel openings
same,voltage-dependent promotion of channel substate activity,"RyR1; −40 mV vs +40 mV, RyR1 and RyR2",greater in the presence of nanomolar concentrations of Xt3a in RyR1 than in RyR2
same,rel Po,"ryanodine receptor; Woearly after 10nM Xt3a vs 1 micoM Ca, CT1124n",1.432
same,rel Po,"ryanodine receptor; Woearly after 10nM Xt3a vs 1 micoM Ca, CT1124p",0.937
same,rel Po,"ryanodine receptor; Woearly after 10nM Xt3a vs 1 micoM Ca, CT1125p (r7)",0.4348
same,rel Po,"ryanodine receptor; Woearly after 10nM Xt3a vs 1 micoM Ca, CT1125p (r12)",0.3976
same,rel Po,"ryanodine receptor; Woearly after 10nM Xt3a vs 1 micoM Ca, CT1126n",1.917
same,rel Po,"ryanodine receptor; Woearly after 10nM Xt3a vs 1 micoM Ca, CT1126p",0.1557
same,rel Po,"ryanodine receptor; Woearly after 10nM Xt3a vs 1 micoM Ca, CT1129p",0.23
same,rel Po,"ryanodine receptor; Woearly after 10nM Xt3a vs 1 micoM Ca, mean of 7 records",0.7864
same,rel Po,"ryanodine receptor; Woearly after 1 microM Xt3a vs 1 micoM Ca, CT1134 n",4.4537
same,rel Po,"ryanodine receptor; Woearly after 1 microM Xt3a vs 1 micoM Ca, CT1134 p",3.797
same,rel Po,"ryanodine receptor; Woearly after 1 microM Xt3a vs 1 micoM Ca, CT1135 n",34.6466
same,rel Po,"ryanodine receptor; Woearly after 1 microM Xt3a vs 1 micoM Ca, CT1136 n",1.926
same,rel Po,"ryanodine receptor; Woearly after 1 microM Xt3a vs 1 micoM Ca, CT1136 p",1.125
same,rel Po,"ryanodine receptor; Woearly after 1 microM Xt3a vs 1 micoM Ca, CT1137 n",1.615
same,rel Po,"ryanodine receptor; Woearly after 1 microM Xt3a vs 1 micoM Ca, CT1137p",7.5
same,rel Po,"ryanodine receptor; Woearly after 1 microM Xt3a vs 1 micoM Ca, CT1138n",1
same,rel Po,"ryanodine receptor; Woearly after 1 microM Xt3a vs 1 micoM Ca, CT1138p",8.033
same,rel Po,"ryanodine receptor; Woearly after 1 microM Xt3a vs 1 micoM Ca, mean (CT1135 p cell empty)",7.122
same,rel Po,"ryanodine receptor; Wolate after 10nM Xt3a vs 1 micoM Ca, CT1124n",0.8317
same,rel Po,"ryanodine receptor; Wolate after 10nM Xt3a vs 1 micoM Ca, CT1124p",12.1926
same,rel Po,"ryanodine receptor; Wolate after 10nM Xt3a vs 1 micoM Ca, CT1125p (r7)",0.7826
same,rel Po,"ryanodine receptor; Wolate after 10nM Xt3a vs 1 micoM Ca, CT1125p (r12)",0.9398
same,rel Po,"ryanodine receptor; Wolate after 10nM Xt3a vs 1 micoM Ca, CT1126n",0.9549
same,rel Po,"ryanodine receptor; Wolate after 10nM Xt3a vs 1 micoM Ca, CT1126p",1.131
same,rel Po,"ryanodine receptor; Wolate after 10nM Xt3a vs 1 micoM Ca, CT1129p",0.13
same,rel Po,"ryanodine receptor; Wolate after 10nM Xt3a vs 1 micoM Ca, mean of 7 records",2.423
same,rel Po,"ryanodine receptor; Wolate after 1 microM Xt3a vs 1 micoM Ca, CT1134 n",20.9074
same,rel Po,"ryanodine receptor; Wolate after 1 microM Xt3a vs 1 micoM Ca, CT1134 p",6.491
same,rel Po,"ryanodine receptor; Wolate after 1 microM Xt3a vs 1 micoM Ca, CT1135 n",34.2069
same,rel Po,"ryanodine receptor; Wolate after 1 microM Xt3a vs 1 micoM Ca, CT1135 p",0.02609
same,rel Po,"ryanodine receptor; Wolate after 1 microM Xt3a vs 1 micoM Ca, CT1136 n",4.7037
same,rel Po,"ryanodine receptor; Wolate after 1 microM Xt3a vs 1 micoM Ca, CT1136 p",2
same,rel Po,"ryanodine receptor; Wolate after 1 microM Xt3a vs 1 micoM Ca, CT1137 n",0.6923
same,rel Po,"ryanodine receptor; Wolate after 1 microM Xt3a vs 1 micoM Ca, CT1137p",0.75
same,rel Po,"ryanodine receptor; Wolate after 1 microM Xt3a vs 1 micoM Ca, CT1138n",2.952
same,rel Po,"ryanodine receptor; Wolate after 1 microM Xt3a vs 1 micoM Ca, CT1138p",2.133
same,rel Po,"ryanodine receptor; Wolate after 1 microM Xt3a vs 1 micoM Ca, mean of 10 records",7.486
